Tests used:
Procathepsin L = Procathepsin L (Homo sapiens, UniProt P07711); experiment: Inhibition of Cathepsin L from human kidney; assay type: tissue-based
Interstitial collagenase = molecular target: T1, Interstitial collagenase (Homo sapiens, UniProt P03956); experiment: Inhibition of Matrix metalloprotease-1
T1 sequence (P03956 whole entry): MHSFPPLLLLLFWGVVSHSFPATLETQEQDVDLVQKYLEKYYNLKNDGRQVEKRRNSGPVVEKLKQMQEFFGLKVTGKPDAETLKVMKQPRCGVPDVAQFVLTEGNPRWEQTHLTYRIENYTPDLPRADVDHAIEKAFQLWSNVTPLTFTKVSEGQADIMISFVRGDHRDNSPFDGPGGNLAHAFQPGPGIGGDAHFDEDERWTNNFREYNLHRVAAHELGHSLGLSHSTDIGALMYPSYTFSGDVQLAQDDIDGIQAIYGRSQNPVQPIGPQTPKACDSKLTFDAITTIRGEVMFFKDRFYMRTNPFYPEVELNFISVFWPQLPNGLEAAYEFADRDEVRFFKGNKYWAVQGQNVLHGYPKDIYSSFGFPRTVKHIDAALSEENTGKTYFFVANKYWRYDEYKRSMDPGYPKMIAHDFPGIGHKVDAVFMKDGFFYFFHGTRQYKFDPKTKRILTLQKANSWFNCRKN

Chain of Procathepsin L (P07711 whole entry): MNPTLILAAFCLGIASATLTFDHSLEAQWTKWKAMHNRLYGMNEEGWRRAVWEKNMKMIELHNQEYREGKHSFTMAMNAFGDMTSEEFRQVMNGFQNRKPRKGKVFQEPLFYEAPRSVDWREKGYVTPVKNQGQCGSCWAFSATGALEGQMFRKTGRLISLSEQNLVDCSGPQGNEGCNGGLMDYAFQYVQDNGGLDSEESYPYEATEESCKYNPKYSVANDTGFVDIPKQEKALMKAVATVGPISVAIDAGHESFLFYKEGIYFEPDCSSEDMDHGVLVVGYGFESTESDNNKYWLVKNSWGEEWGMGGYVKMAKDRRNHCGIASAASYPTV

Structure (SMILES) | IC50 (Procathepsin L) | IC50 (Interstitial collagenase)
CC(C)C[C@H](CC(=O)NO)C(=O)N[C@@H](Cc1ccccc1)C(=O)NCC=O | 4300 nM | 12 nM
CC(C)C[C@H](CC(=O)NO)C(=O)N[C@@H](Cc1ccccc1)C(=O)N[C@H](C=O)CC(C)C | 7 nM | 1400 nM
CC(C)C[C@H](CC(=O)NO)C(=O)N[C@@H](CC(C)C)C(=O)N[C@@H](C)C=O | 23 nM | 47 nM
CCOC(OCC)[C@H](C)NC(=O)[C@H](Cc1ccccc1)NC(=O)[C@@H](CC(=O)NO)CC(C)C | > 1000 nM | 29 nM
CNC(=O)[C@H](Cc1ccccc1)NC(=O)[C@@H](CC(=O)NO)CC(C)C | > 1000 nM | 
CC(C)C[C@H](CC(=O)NO)C(=O)N[C@@H](Cc1ccccc1)C(=O)N[C@@H](C)C=O | 15 nM | 25 nM
C[C@@H](C=O)NC(=O)[C@H](Cc1ccccc1)NC(=O)OCc1ccccc1 | 3 nM | > 1000 nM
